In patent US20250206732A1, “COMPOUNDS AND METHODS FOR THE TARGETED DEGRADATION OF KRAS” (Arvinas Operations, Inc., priority 2022, published 2025) one finds Dmax and DC50 data, which are given here for twelve compounds.

The experiment deals with T1, AsPC-1 HiBiT-KRASG12D (Homo sapiens, UniProt P01116, G12D).
T1 construct: insert the HiBiT tag onto the N-terminus of one or more of the endogenous KRAS alleles; endogenous in cells; host or cells: AsPC-1 (ATCC CRL-1682), CRISPR-Cas9 knock-in clone, one tagged allele
Kind of experiment: HiBiT degradation assay (G12D), AsPC-1 HiBiT-KRASG12D cells. In kind it is cell-based. Particulars: 24 hours treatment; for Dmax: ASPC1, AsPC-1 HiBiT-KRASG12D cells, maximum degradation observed; for DC50: AsPC-1 HiBiT-KRASG12D cells, HiBiT luminescence. The method in brief: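 Endogenous KRASG12D levels were measured via an N-terminal HiBiT tag knocked into AsPC-1 cells. Cells received compound titrations for 24 hours, and HiBiT luminescence was detected after a 45-minute lytic reagent incubation at room temperature.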

T1 sequence (P01116 1-188 isoform P01116-2 G12D): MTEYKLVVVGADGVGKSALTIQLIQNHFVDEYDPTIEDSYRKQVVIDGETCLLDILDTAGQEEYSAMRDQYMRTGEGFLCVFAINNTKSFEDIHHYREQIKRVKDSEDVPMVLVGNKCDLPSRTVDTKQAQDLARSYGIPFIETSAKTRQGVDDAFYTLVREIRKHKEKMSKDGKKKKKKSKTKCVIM

Regarding `CCc1cccc2cc(O)cc(-c3ncc4c(N5CC6CCC(C5)N6)nc(OCCC5CCN(CC6CN(c7cc([C@@H](C(=O)N8C[C@H](O)C[C@H]8C(=O)N[C@@H](C)c8ccc(-c9scnc9C)cc8)C(C)C)on7)C6)CC5)nc4c3F)c12` [Compound 219, (2S,4R)-1-[(2S)-2-(3-{3-[(4-{2-[(4-{3,8-diazabicyclo[3.2.1]octan-3-yl}-7-(8-ethyl-3-hydroxynaphthalen-1-yl)-8-fluoropyrido[4,3-d]pyrimidin-2-yl)oxy]ethyl}piperidin-1-yl)methyl]azetidin-1-yl}-1,2-oxazol-5-yl)-3-methylbutanoyl]-4-hydroxy-N-[(1S)-1-[4-(4-methyl-1,3-thiazol-5-yl)phenyl]ethyl]pyrrolidine-2-carboxamide], the Dmax – broadly, the largest share of the target that was removed – lay in the range of 20 to 60% and the DC50 (usually the midpoint of the concentration-degradation curve) lay within 1000 to 3000 nM.

`C#Cc1c(F)ccc2cc(O)cc(-c3ncc4c(N5CC6CCC(C5)N6)nc(OCCN5CCC(CN6CCN(c7cc([C@H](C(=O)N8C[C@H](O)C[C@H]8C(=O)N[C@@H](C)c8ccc(-c9scnc9C)cc8)C(C)C)on7)CC6)CC5)nc4c3F)c12` [Compound 206, (2S,4R)-1-[(2R)-2-(3-{4-[(1-{2-[(4-{3,8-diazabicyclo[3.2.1]octan-3-yl}-7-(8-ethynyl-7-fluoro-3-hydroxynaphthalen-1-yl)-8-fluoropyrido[4,3-d]pyrimidin-2-yl)oxy]ethyl}piperidin-4-yl)methyl]piperazin-1-yl}-1,2-oxazol-5-yl)-3-methylbutanoyl]-4-hydroxy-N-[(1S)-1-[4-(4-methyl-1,3-thiazol-5-yl)phenyl]ethyl]pyrrolidine-2-carboxamide] showed a maximal degradation (Dmax) of 80 to 100% and a 50% degradation concentration (DC50) below 600 nM.

The compound `CCc1cccc2cc(O)cc(-c3ncc4c(N5CC6CCC(C5)N6)nc(N5CCC(CN6CCC(CC7CN(c8cc([C@H](C(=O)N9C[C@H](O)C[C@H]9C(=O)N[C@@H](C)c9ccc(-c%10scnc%10C)cc9)C(C)C)on8)C7)CC6)CC5)nc4c3F)c12` [Compound 192, (2S,4R)-1-[(2R)-2-(3-{3-[(1-{[1-(4-{3,8-diazabicyclo[3.2.1]octan-3-yl}-7-(8-ethyl-3-hydroxynaphthalen-1-yl)-8-fluoropyrido[4,3-d]pyrimidin-2-yl)piperidin-4-yl]methyl}piperidin-4-yl)methyl]azetidin-1-yl}-1,2-oxazol-5-yl)-3-methylbutanoyl]-4-hydroxy-N-[(1S)-1-[4-(4-methyl-1,3-thiazol-5-yl)phenyl]ethyl]pyrrolidine-2-carboxamide] came in with a DC50 above 3000 nM.

The compound `CCc1cccc2cc(O)cc(-c3ncc4c(N5CC6CCC(C5)N6)nc(OC[C@@H]5CC[C@@H](COC(=O)N6CCN(c7cc([C@H](C(=O)N8C[C@H](O)C[C@H]8C(=O)N[C@@H](C)c8ccc(-c9scnc9C)cc8)C(C)C)on7)CC6)N5C)nc4c3F)c12` [Compound 50, [(2S,5S)-5-{[(4-{3,8-diazabicyclo[3.2.1]octan-3-yl}-7-(8-ethyl-3-hydroxynaphthalen-1-yl)-8-fluoropyrido[4,3-d]pyrimidin-2-yl)oxy]methyl}-1-methylpyrrolidin-2-yl]methyl 4-{5-[(2R)-1-[(2S,4R)-4-hydroxy-2-{[(1S)-1-[4-(4-methyl-1,3-thiazol-5-yl)phenyl]ethyl]carbamoyl}pyrrolidin-1-yl]-3-methyl-1-oxobutan-2-yl]-1,2-oxazol-3-yl}piperazine-1-carboxylate] had a Dmax of 80 to 100% and a 50% degradation concentration (DC50) below 600 nM.

Compound `CCc1cccc2cc(O)cc(-c3ncc4c(N5CC6CCC(C5)N6)nc(OC[C@@H]5CC[C@@H](COC(=O)N6CCN(c7cc([C@@H](C(=O)N8C[C@H](O)C[C@H]8C(=O)N[C@@H](C)c8ccc(-c9scnc9C)cc8)C(C)C)on7)[C@H](C)C6)N5C)nc4c3F)c12` [Compound 298, [(2S,5S)-5-[[4-(3,8-diazabicyclo[3.2.1]octan-3-yl)-7-(8-ethyl-3-hydroxy-1-naphthyl)-8-fluoro-pyrido[4,3-d]pyrimidin-2-yl]oxymethyl]-1-methyl-pyrrolidin-2-yl]methyl (3R)-4-[5-[(1S)-1-[(2S,4R)-4-hydroxy-2-[[(1S)-1-[4-(4-methylthiazol-5-yl)phenyl]ethyl]carbamoyl]pyrrolidine-1-carbonyl]-2-methyl-propyl]isoxazol-3-yl]-3-methyl-piperazine-1-carboxylate] registered a DC50 above 3000 nM.

In the case of `CCc1cccc2cc(O)cc(-c3ncc4c(N5CC6CCC(C5)N6)nc(OCCN5CCC(C)(COc6cc([C@H](C(=O)N7C[C@H](O)C[C@H]7C(=O)N[C@@H](C)c7ccc(-c8scnc8C)cc7)C(C)C)on6)CC5)nc4c3F)c12` [Compound 32, (2S,4R)-1-[(2R)-2-{3-[(1-{2-[(4-{3,8-diazabicyclo[3.2.1]octan-3-yl}-7-(8-ethyl-3-hydroxynaphthalen-1-yl)-8-fluoropyrido[4,3-d]pyrimidin-2-yl)oxy]ethyl}-4-methylpiperidin-4-yl)methoxy]-1,2-oxazol-5-yl}-3-methylbutanoyl]-4-hydroxy-N-[(1S)-1-[4-(4-methyl-1,3-thiazol-5-yl)phenyl]ethyl]pyrrolidine-2-carboxamide], the Dmax is 80 to 100% and the half-maximal degradation concentration (DC50) was below 600 nM.

Take `CCc1cccc2cc(O)cc(-c3ncc4c(N5CC6CCC(C5)N6)nc(OC[C@@]56CCCN5[C@H](CN5CCC(F)(COc7cc([C@@H](C(=O)N8C[C@H](O)C[C@H]8C(=O)N[C@@H](C)c8ccc(-c9scnc9C)cc8)C(C)C)on7)CC5)CC6)nc4c3F)c12` [Compound 336, (2S,4R)-1-[(2S)-2-[3-[[1-[[(3S,8S)-8-[[4-(3,8-diazabicyclo[3.2.1]octan-3-yl)-7-(8-ethyl-3-hydroxy-1-naphthyl)-8-fluoro-pyrido[4,3-d]pyrimidin-2-yl]oxymethyl]-1,2,3,5,6,7-hexahydropyrrolizin-3-yl]methyl]-4-fluoro-4-piperidyl]methoxy]isoxazol-5-yl]-3-methyl-butanoyl]-4-hydroxy-N-[(1S)-1-[4-(4-methylthiazol-5-yl)phenyl]ethyl]pyrrolidine-2-carboxamide]: the Dmax was in the range of 20 to 60% and the DC50 lay in the range of 1000 to 3000 nM.

Consider `Cc1ncsc1-c1ccc([C@H](C)NC(=O)[C@@H]2C[C@@H](O)CN2C(=O)[C@@H](c2cc(OC3CN(C(=O)OC[C@@H]4CC[C@@H](COc5nc(N6CC7CCC(C6)N7)c6cnc(-c7cc(O)cc(Cl)c7C7CC7)c(F)c6n5)N4C)C3)no2)C(C)C)cc1` [Compound 285], for which the Dmax was in the range of 80 to 100% and the DC50 was below 600 nM.

Compound `Cc1ncsc1-c1ccc([C@H](C)NC(=O)[C@@H]2C[C@@H](O)CN2C(=O)[C@@H](c2cc(N3CCN(C(=O)OC[C@@H]4CC[C@@]5(COc6nc(N7CC8CCC(C7)N8)c7cc(Cl)c(-c8cc(O)cc9ccccc89)c(F)c7n6)CCCN45)CC3)no2)C(C)C)cc1` (relative stereo) [Compound 330, [(3R,8S)-8-[[6-chloro-4-(3,8-diazabicyclo[3.2.1]octan-3-yl)-8-fluoro-7-(3-hydroxy-1-naphthyl)quinazolin-2-yl]oxymethyl]-1,2,3,5,6,7-hexahydropyrrolizin-3-yl]methyl 4-[5-[(1R)-1-[(2S,4R)-4-hydroxy-2-[[(1S)-1-[4-(4-methylthiazol-5-yl)phenyl]ethyl]carbamoyl]pyrrolidine-1-carbonyl]-2-methyl-propyl]isoxazol-3-yl]piperazine-1-carboxylate] returned a maximal degradation (Dmax) of 60 to 80% and a half-maximal degradation concentration (DC50) below 600 nM.

`C#Cc1c(F)ccc2cc(O)cc(-c3ncc4c(N5CC6CCC(C5)N6)nc(OC[C@]56CCCN5[C@H](COc5cc([C@H](C(=O)N7C[C@H](O)C[C@H]7C(=O)N[C@@H](C)c7ccc(-c8scnc8C)cc7)C(C)C)on5)CC6)nc4c3F)c12` [Compound 311, (2S,4R)-1-[(2R)-2-[3-[[(3S,8R)-8-[[4-(3,8-diazabicyclo[3.2.1]octan-3-yl)-7-(8-ethynyl-7-fluoro-3-hydroxy-1-naphthyl)-8-fluoro-pyrido[4,3-d]pyrimidin-2-yl]oxymethyl]-1,2,3,5,6,7-hexahydropyrrolizin-3-yl]methoxy]isoxazol-5-yl]-3-methyl-butanoyl]-4-hydroxy-N-[(1S)-1-[4-(4-methylthiazol-5-yl)phenyl]ethyl]pyrrolidine-2-carboxamide] returned a Dmax of 80 to 100% and a DC50 below 600 nM.

For the compound `CCc1cccc2cc(O)cc(-c3ncc4c(N5CC6CCC(C5)N6)nc(OC[C@@]56CCCN5[C@@H](COC(=O)N5CCN(c7cc(C(C(=O)N8C[C@H](O)C[C@H]8C(=O)N[C@@H](C)c8ccc(-c9scnc9C)cc8)C(C)C)on7)CC5)CC6)nc4c3F)c12` (single isomer, unassigned) [Compound 108, [(3R,7aS)-7a-{[(4-{3,8-diazabicyclo[3.2.1]octan-3-yl}-7-(8-ethyl-3-hydroxynaphthalen-1-yl)-8-fluoropyrido[4,3-d]pyrimidin-2-yl)oxy]methyl}-hexahydro-1H-pyrrolizin-3-yl]methyl 4-{5-[(2R*)-1-[(2S,4R)-4-hydroxy-2-{[(1S)-1-[4-(4-methyl-1,3-thiazol-5-yl)phenyl]ethyl]carbamoyl}pyrrolidin-1-yl]-3-methyl-1-oxobutan-2-yl]-1,2-oxazol-3-yl}piperazine-1-carboxylate], the greatest degradation seen (Dmax) fell in the range of 80 to 100% and the half-maximal degradation concentration (DC50) is below 600 nM.

`CCc1cccc2cc(O)cc(-c3ncc4c(N5CC6CCC(C5)N6)nc(OCCN5CCC(F)(CC6CCN(c7cc([C@H](C(=O)N8C[C@H](O)C[C@H]8C(=O)N[C@@H](C)c8ccc(-c9scnc9C)cc8)C(C)C)on7)CC6)CC5)nc4c3F)c12` [Compound 239] came in with a Dmax of 80 to 100% and a DC50 below 600 nM.
